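Briefly, cells in 96-well plates were exposed to five compound concentrations for 48 h, and endpoints were estimated by linear interpolation. Here, GI50 denotes the concentration required for 50% inhibition of growth.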 Calls of active or inactive are those of the source. No stated cut-off is given here; in the data, active = GI50 up to about 1.1 µM and inactive = higher.

Data on ten compounds can be found in ChEMBL document CHEMBL1201862, “PubChem BioAssay data set” (2004).

Among the test systems are K562; ACHN; M14; MCF7; A498; HL-60; SK-MEL-2; MDA-MB-231; SR; SF-295; CCRF-CEM; OVCAR-4; HT-29; HCC 2998; NCI-H226; MOLT-4; IGROV-1; OVCAR-3; COLO 205; NCI-H522.
Holding throughout (assay): NCI-60 cell line screen, 48 h

As to `CSc1nc2c(c(=O)[nH]1)N=C(c1ccccc1)CC(c1ccccc1)N2` (centres undefined), the GI50 in the assay with K562 is 23.4 µM (inactive); in the assay on ACHN, 25.6 µM (inactive); in the assay with M14, 32.2 µM (inactive); with MCF7 it was 12.3 µM (inactive); in the assay on A498, 83.4 µM (inactive); with HL-60, 22.9 µM (inactive). The GI50 with SK-MEL-2 is 27.8 µM (inactive); with MDA-MB-231, 18.5 µM (inactive); in the assay with SR it was 21.1 µM (inactive); in the assay with SF-295, 34.7 µM (inactive); in the assay with CCRF-CEM, 26.1 µM (inactive); in the assay on OVCAR-4, 30.3 µM (inactive). Also, the GI50 is 30.4 µM (inactive) in the assay on HT-29; 29.3 µM (inactive) in the assay on HCC 2998; 39.7 µM (inactive) in the assay with NCI-H226; 18.9 µM (inactive) with MOLT-4; 23.4 µM (inactive) with IGROV-1; 39 µM (inactive) in the assay on OVCAR-3. The values for the GI50 in the assay on COLO 205 and in the assay on NCI-H522 were 41.7 µM (inactive) and 19.2 µM (inactive), respectively.

As to `CC(C)/C(Cl)=N\OC(=O)Nc1cccc(Cl)c1`, the GI50 was 2.07 µM (inactive) in the assay on K562; 6.22 µM (inactive) with ACHN; 0.305 µM (active) in the assay with M14; 15.8 µM (inactive) in the assay with MCF7; 17.4 µM (inactive) with A498; 1.71 µM (inactive) with HL-60. Further, the GI50 in the assay on SK-MEL-2 was 15.5 µM (inactive); in the assay on MDA-MB-231, 15.2 µM (inactive); in the assay with SR, 2.49 µM (inactive); with SF-295, 36.1 µM (inactive); with CCRF-CEM, 1.67 µM (inactive); with OVCAR-4, 13.3 µM (inactive). Moreover, the GI50 with HT-29 was 15 µM (inactive); in the assay on HCC 2998, 17 µM (inactive); in the assay on NCI-H226, 20.8 µM (inactive); in the assay on MOLT-4 it was 2.65 µM (inactive); in the assay on IGROV-1, 18.6 µM (inactive); with OVCAR-3 it was 3.28 µM (inactive). Further, the GI50 with COLO 205 is 2.08 µM (inactive); in the assay on NCI-H522 it was 1.66 µM (inactive).

With `CCOC(=O)c1cc2c3ccn(Cc4ccccc4)c3c3c(C)noc3c2[nH]1`, the GI50 with K562, in the assay with ACHN, in the assay with M14, in the assay on MCF7, with A498 and in the assay on HL-60 was > 100 µM (inactive) throughout. In addition, the GI50 with SK-MEL-2, with MDA-MB-231, with SR, in the assay on SF-295, in the assay on CCRF-CEM and with OVCAR-4 was > 100 µM (inactive) each time. Further, the GI50 in the assay on HCC 2998, in the assay with NCI-H226, in the assay on MOLT-4, in the assay on IGROV-1, with OVCAR-3 and with COLO 205 was > 100 µM (inactive) each time. The GI50 in the assay with NCI-H522 was > 100 µM (inactive).

For `O=C(Nc1ccc(Cl)cc1)c1cc(S(=O)(=O)Nc2n[nH]c(=O)[nH]2)c(SSc2cc(Cl)c(C(=O)Nc3ccc(Cl)cc3)cc2S(=O)(=O)Nc2n[nH]c(=O)[nH]2)cc1Cl`, the GI50 in the assay with K562, with ACHN, in the assay with M14, in the assay on MCF7, in the assay with A498 and in the assay on HL-60 was > 100 µM (inactive) in each case. Besides, the GI50 with SK-MEL-2, in the assay with MDA-MB-231, in the assay on SR, in the assay on SF-295, in the assay with CCRF-CEM and in the assay on OVCAR-4 was > 100 µM (inactive) each time. The GI50 with HT-29, with HCC 2998, with NCI-H226, in the assay with MOLT-4, in the assay on IGROV-1 and in the assay on OVCAR-3 was > 100 µM (inactive) in each case. For the same compound, the GI50 in the assay on COLO 205 and in the assay with NCI-H522 was > 100 µM (inactive) throughout.

Regarding `Cc1nc2cc(/N=N/c3c(O)ccc4ccccc34)ccc2[nH]1`, the GI50 in the assay with K562 is 23.9 µM (inactive); in the assay with ACHN it was 32.3 µM (inactive); with M14 it was 38.4 µM (inactive); with MCF7, 21.2 µM (inactive); in the assay with A498, > 55 µM (inactive); with HL-60 it was 15.1 µM (inactive). Further, the GI50 with SK-MEL-2 was 42.2 µM (inactive); with MDA-MB-231, 27.8 µM (inactive); with SR it was 24.2 µM (inactive); with SF-295 it was 41.1 µM (inactive); with CCRF-CEM it was 16.1 µM (inactive); in the assay with OVCAR-4, 18.8 µM (inactive). Also, the GI50 is 40.6 µM (inactive) in the assay with HT-29; > 50.5 µM (inactive) in the assay with HCC 2998; > 62.2 µM (inactive) in the assay on NCI-H226; 21 µM (inactive) in the assay with MOLT-4; > 45.3 µM (inactive) in the assay with IGROV-1; 25.2 µM (inactive) in the assay with OVCAR-3. Also, the GI50 is 29.5 µM (inactive) with COLO 205 and 22.8 µM (inactive) with NCI-H522.

Regarding `COc1ccc(/C=N/N=C(\N)NO)c(OC)c1OC`, the GI50 in the assay on K562 is 23.2 µM (inactive); with ACHN it was 21.2 µM (inactive); in the assay on M14 it was 44.4 µM (inactive); in the assay on MCF7, 11.5 µM (inactive); in the assay on A498, 26.7 µM (inactive); in the assay with HL-60, 23.1 µM (inactive). Further, the GI50 in the assay on SK-MEL-2 was 25.6 µM (inactive); in the assay on MDA-MB-231, 65.2 µM (inactive); with SR, 25 µM (inactive); in the assay with SF-295 it was 31.6 µM (inactive); in the assay with CCRF-CEM, 20 µM (inactive); with OVCAR-4, 53.7 µM (inactive). Further, the GI50 was 20.8 µM (inactive) in the assay with HT-29; 17.2 µM (inactive) in the assay with HCC 2998; 23.4 µM (inactive) in the assay with NCI-H226; 42.3 µM (inactive) in the assay on MOLT-4; 36.6 µM (inactive) in the assay on IGROV-1; 16.4 µM (inactive) with OVCAR-3. Moreover, the GI50 in the assay with COLO 205 is 19.1 µM (inactive); with NCI-H522 it was 36.6 µM (inactive).

On to `O=CNCCCN1CCN(CCCNC=O)CC1`, for which the GI50 in the assay with K562, with ACHN, in the assay with M14, in the assay on MCF7, in the assay on A498 and with HL-60 was > 100 µM (inactive) in each case. Moreover, the GI50 in the assay on SK-MEL-2, with MDA-MB-231, in the assay with SR, in the assay with SF-295, in the assay on CCRF-CEM and in the assay with OVCAR-4 was > 100 µM (inactive) in each case. Moreover, the GI50 with HT-29, in the assay with HCC 2998, in the assay on NCI-H226, in the assay on MOLT-4, in the assay with IGROV-1 and with OVCAR-3 was > 100 µM (inactive) in each case. The GI50 is > 100 µM (inactive) with COLO 205 and 1.6 µM (inactive) in the assay with NCI-H522.

Turning to `CC(=O)NC(Cc1ccc(OP(=O)(OCc2ccc([N+](=O)[O-])o2)N(C)CCCCCl)cc1)C(=O)NC(C)c1ccc(OCC2CCCCC2)c(C(N)=O)c1` (centres undefined), the GI50 with K562 is 3.91 µM (inactive); in the assay with ACHN, 8.15 µM (inactive); with M14, 2.22 µM (inactive); in the assay with MCF7, 2.25 µM (inactive); in the assay on A498, 18.9 µM (inactive); in the assay with HL-60, 2.79 µM (inactive). For the same compound, the GI50 was 3.08 µM (inactive) in the assay on SK-MEL-2; 2.05 µM (inactive) with MDA-MB-231; 2.21 µM (inactive) in the assay on SR; 4.74 µM (inactive) in the assay on SF-295; 1.33 µM (inactive) with CCRF-CEM; 3.66 µM (inactive) in the assay with OVCAR-4. For the same compound, the GI50 in the assay on HT-29 was 2.25 µM (inactive); in the assay with HCC 2998 it was 1.82 µM (inactive); in the assay with NCI-H226, 5.94 µM (inactive); in the assay on MOLT-4, 3.53 µM (inactive); with IGROV-1, 2.7 µM (inactive); in the assay on OVCAR-3, 2.27 µM (inactive). Besides, the values for the GI50 with COLO 205 and in the assay with NCI-H522 were 1.87 µM (inactive) and 3.73 µM (inactive), respectively.

For `O=[N+]([O-])c1cnc(N(CCO)CCO)s1`, the GI50 with K562, in the assay on ACHN, in the assay with M14, in the assay with MCF7, with A498 and with HL-60 was > 100 µM (inactive) each time. The GI50 in the assay on SK-MEL-2 is > 100 µM (inactive); in the assay with MDA-MB-231, > 100 µM (inactive); with SR, > 100 µM (inactive); with SF-295 it was > 100 µM (inactive); in the assay on CCRF-CEM, 79.6 µM (inactive); in the assay with OVCAR-4 it was > 100 µM (inactive). In addition, the GI50 in the assay with HT-29, in the assay with HCC 2998, in the assay with NCI-H226, in the assay on MOLT-4, with IGROV-1 and with OVCAR-3 was > 100 µM (inactive) throughout. The GI50 in the assay on COLO 205 and in the assay with NCI-H522 was > 100 µM (inactive) in each case.

For the compound `Cc1ccc2c(O)cc(-c3ccc(Cl)cc3)nc2n1`, the GI50 in the assay on K562 was 2.58 µM (inactive); in the assay with ACHN, 8.07 µM (inactive); in the assay on M14, 7.48 µM (inactive); with MCF7 it was 3.35 µM (inactive); in the assay on A498, 9.73 µM (inactive); in the assay with HL-60 it was 2.69 µM (inactive). In addition, the GI50 in the assay with SK-MEL-2 was 3.98 µM (inactive); in the assay on MDA-MB-231, 5.52 µM (inactive); in the assay with SR, 4.33 µM (inactive); in the assay on SF-295 it was 4.59 µM (inactive); in the assay on CCRF-CEM, 7.52 µM (inactive); in the assay on OVCAR-4, 15.2 µM (inactive). Also, the GI50 was 3.3 µM (inactive) in the assay with HT-29; 6.65 µM (inactive) in the assay with HCC 2998; 14.9 µM (inactive) in the assay on NCI-H226; 1.2 µM (inactive) in the assay on MOLT-4; 5.69 µM (inactive) in the assay on IGROV-1; 3.1 µM (inactive) in the assay on OVCAR-3. Further, the GI50 was 1.85 µM (inactive) in the assay on COLO 205 and 5.89 µM (inactive) in the assay on NCI-H522.
